These are literature values, as cited in US20130224294A1, “DRY PROCESSING OF ATAZANAVIR” (priority 2010, published 2013).

Molecules are shown by their SMILES.

The conditions of data set [1]: free base.
The conditions of data set [2]: at 24±3° C.; base formed by dissociation of the salt in the presence of water.

For `COC(=O)N[C@H](C(=O)N[C@@H](Cc1ccccc1)[C@@H](O)CN(Cc1ccc(-c2ccccn2)cc1)NC(=O)[C@@H](NC(=O)OC)C(C)(C)C)C(C)(C)C` [Atazanavir], the “BCS class (high permeability/low solubility)” value is “BCS II”. Moreover, the bioavailability entry in data set [1] was “does not have sufficient bioavailability”. For the same compound, in data set [2], the solubility is below 1 µg/mL.

The term solubility denotes the concentration that dissolves in the medium under given conditions.
